Read-outs that look alike come from different tables or passages of the source. Blank lines part the entries; values can stand above or below the compound they belong to.
How the values were obtained:
obese, diabetic patients = conditions: continuous perfusion, 6 weeks; cited from earlier work
[1] = cited from earlier work; for distribution volume: in vivo
plasma carrier proteins = conditions: cited from earlier work
[2] = cited from earlier work; for solubility in alcohol: alcohol / ethanol
[3] = Complete dissolution in hydroalcoholic solution according to the invention; type: physicochemical; conditions: approximately 50° hydroalcoholic solution
Description: The term “dissolved in a stable and a complete manner” means a state of dissolution restoring the active principle to the molecular state, slightly ionized in its dissolving medium, the state of dissolution preventing any possibility of inopportune recrystallization.

[4] = oral; cited from earlier work

Compound: glucagon-like peptide-1 [GLP-1]
- reduction in postprandial glycemia (obese, diabetic patients): 5.5 mM
- reduction of hemoglobin HbAlC (obese, diabetic patients): 1.3%

Compound: N[C@@H](CC(=O)N1CCn2c(nnc2C(F)(F)F)C1)Cc1cc(F)c(F)cc1F [Sitagliptin, sitagliptin]
- bioavailability ([1]; oral): ~87%
- mean distribution volume in the organism ([1]; single dose of 100 mg intravenous): approximately 198 L
- binding to plasma proteins (in words) (plasma carrier proteins): bound to plasma proteins
- solubility in organic solvents [2]: soluble in water and certain organic solvents
- solubility in water [2]: soluble in water

- complete dissolution, amount [3]: 3.5 mg for 0.75 mL
Compound: Cc1ccc(S(=O)(=O)NC(=O)NN2CC3CCCC3C2)cc1 (stereo not drawn) [Gliclazide, gliclazide]
- distribution volume [1]: approximately 30 L
- distribution volume ([1]; listed as gliclazide): 30 L
- hepatic metabolism (in words) ([1]; oral): extensively metabolized by the first hepatic passage
- binding to plasma carrier proteins (plasma carrier proteins): 95%
- solubility in alcohol [2]: slightly soluble in alcohol
- solubility in water [2]: insoluble in water

Compound: CCOc1cc(CC(=O)N[C@@H](CC(C)C)c2ccccc2N2CCCCC2)ccc1C(=O)O [Repaglinide, repaglinide]
- inter-individual variability in plasma concentration [4]: 60%
- intra-individual variability in plasma concentration [4]: 35%
- onset of insulinotropic response after taking [4]: approximately 30 min

- complete dissolution, amount [3]: 1 mg per 1 mL
Compound: COc1ccc(Cl)cc1C(=O)NCCc1ccc(S(=O)(=O)NC(=O)NC2CCCCC2)cc1 [glibenclamide]
- solubility in alcohol [2]: slightly soluble in ethanol
- solubility in water [2]: practically insoluble in water

Compound: CN(C)C(=N)N=C(N)N [Metformin, metformin]
- binding to plasma proteins (in words) (plasma carrier proteins): not bound to plasma proteins

Compound: N#C[C@@H]1CCCN1C(=O)CNC12CC3CC(CC(O)(C3)C1)C2 [Vildagliptin, vildagliptin]
- bioavailability ([1]; oral): approximately 85%
- solubility in organic solvents [2]: soluble in water and organic solvents
- solubility in water [2]: soluble in water
